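Assay format: 96-well plates, 48-hour exposure. TGI marks complete inhibition of growth.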
Experiments:
Assay in all cases: NCI anticancer screen, dose series, 48 h
A549 NSCLC = test system: A549 NSCLC
MCF7 breast = test system: MCF7 breast
OVCAR-8 ovarian = test system: OVCAR-8 ovarian
HL-60(TB) leukemia = test system: HL-60(TB) leukemia
OVCAR-3 ovarian = test system: OVCAR-3 ovarian
KM12 colon = test system: KM12 colon
RPMI-8226 leukemia = test system: RPMI-8226 leukemia
MDA-MB-435 = test system: MDA-MB-435
786-0 renal = test system: 786-0 renal
UO-31 renal = test system: UO-31 renal
DU-145 prostate = test system: DU-145 prostate
NCI/ADR-RES ovarian = test system: NCI/ADR-RES ovarian
U251 CNS = test system: U251 CNS
NCI-H226 lung = test system: NCI-H226 lung
SR leukemia = test system: SR leukemia
HCC-2998 colon = test system: HCC-2998 colon
M14 melanoma = test system: M14 melanoma
SF-268 CNS = test system: SF-268 CNS
HCT-15 colon = test system: HCT-15 colon
HT29 colon = test system: HT29 colon
SN12C renal = test system: SN12C renal
PC-3 prostate = test system: PC-3 prostate
HOP-92 NSCLC = test system: HOP-92 NSCLC
T-47D breast = test system: T-47D breast
HCT-116 colon = test system: HCT-116 colon
SW-620 colon = test system: SW-620 colon
HOP-62 NSCLC = test system: HOP-62 NSCLC
BT-549 breast = test system: BT-549 breast
CCRF-CEM leukemia = test system: CCRF-CEM leukemia
NCI-H460 lung = test system: NCI-H460 lung
EKVX NSCLC = test system: EKVX NSCLC
K-562 leukemia = test system: K-562 leukemia
MDA-N = test system: MDA-N
OVCAR-5 ovarian = test system: OVCAR-5 ovarian
NCI-H23 lung = test system: NCI-H23 lung
ACHN renal = test system: ACHN renal
COLO 205 colon = test system: COLO 205 colon
TK-10 renal = test system: TK-10 renal
SK-MEL-28 melanoma = test system: SK-MEL-28 melanoma
UACC-257 melanoma = test system: UACC-257 melanoma
MALME-3M melanoma = test system: MALME-3M melanoma
MOLT-4 leukemia = test system: MOLT-4 leukemia
SNB-19 CNS = test system: SNB-19 CNS
SF-539 CNS = test system: SF-539 CNS
RXF 393 renal = test system: RXF 393 renal
SF-295 CNS = test system: SF-295 CNS
A498 renal = test system: A498 renal
HS 578T breast = test system: HS 578T breast
SK-OV-3 ovarian = test system: SK-OV-3 ovarian
OVCAR-4 ovarian = test system: OVCAR-4 ovarian
SK-MEL-2 melanoma = test system: SK-MEL-2 melanoma
UACC-62 melanoma = test system: UACC-62 melanoma
SK-MEL-5 melanoma = test system: SK-MEL-5 melanoma
NCI-H522 lung = test system: NCI-H522 lung
MDA-MB-231 breast = test system: MDA-MB-231 breast
LOX IMVI melanoma = test system: LOX IMVI melanoma
IGROV1 ovarian = test system: IGROV1 ovarian
CAKI-1 renal = test system: CAKI-1 renal

SMILES: Cc1cc(C)c(NS(=O)c2ccc(Cl)cc2)c(C)c1 (stereo unspecified)
- TGI (A549 NSCLC): > 100 µM
- TGI (MCF7 breast): > 100 µM
- TGI (OVCAR-8 ovarian): > 100 µM
- TGI (HL-60(TB) leukemia): > 100 µM
- TGI (OVCAR-3 ovarian): > 100 µM
- TGI (KM12 colon): > 100 µM
- TGI (RPMI-8226 leukemia): > 100 µM
- TGI (MDA-MB-435): > 100 µM
- TGI (786-0 renal): > 100 µM
- TGI (UO-31 renal): > 100 µM
- TGI (DU-145 prostate): > 100 µM
- TGI (NCI/ADR-RES ovarian): > 100 µM
- TGI (U251 CNS): > 100 µM
- TGI (NCI-H226 lung): > 100 µM
- TGI (SR leukemia): > 100 µM
- TGI (HCC-2998 colon): > 100 µM
- TGI (M14 melanoma): > 100 µM
- TGI (SF-268 CNS): > 100 µM
- TGI (HCT-15 colon): > 100 µM
- TGI (HT29 colon): > 100 µM
- TGI (SN12C renal): > 100 µM
- TGI (PC-3 prostate): > 100 µM
- TGI (HOP-92 NSCLC): > 100 µM
- TGI (T-47D breast): > 100 µM
- TGI (HCT-116 colon): > 100 µM
- TGI (SW-620 colon): > 100 µM
- TGI (HOP-62 NSCLC): > 100 µM
- TGI (BT-549 breast): > 100 µM
- TGI (CCRF-CEM leukemia): > 100 µM
- TGI (NCI-H460 lung): > 100 µM
- TGI (EKVX NSCLC): > 100 µM
- TGI (K-562 leukemia): > 100 µM
- TGI (MDA-N): > 100 µM
- TGI (OVCAR-5 ovarian): > 100 µM
- TGI (NCI-H23 lung): > 100 µM
- TGI (ACHN renal): > 100 µM
- TGI (COLO 205 colon): > 100 µM
- TGI (TK-10 renal): > 100 µM
- TGI (SK-MEL-28 melanoma): > 100 µM
- TGI (UACC-257 melanoma): > 100 µM
- TGI (MALME-3M melanoma): > 100 µM
- TGI (MOLT-4 leukemia): > 100 µM
- TGI (SNB-19 CNS): > 100 µM
- TGI (SF-539 CNS): > 100 µM
- TGI (RXF 393 renal): > 100 µM
- TGI (SF-295 CNS): > 100 µM
- TGI (A498 renal): > 100 µM

SMILES: CCOC(=O)c1sc2nc(SC)nc3c2c1NC(=O)CN3c1ccc(F)cc1
- TGI (HS 578T breast): 53.3 µM
- TGI (A549 NSCLC): 50.9 µM
- TGI (SK-OV-3 ovarian): 57.7 µM
- TGI (MCF7 breast): > 100 µM
- TGI (OVCAR-8 ovarian): 69.1 µM
- TGI (HL-60(TB) leukemia): > 100 µM
- TGI (OVCAR-4 ovarian): > 100 µM
- TGI (OVCAR-3 ovarian): > 100 µM
- TGI (KM12 colon): > 100 µM
- TGI (RPMI-8226 leukemia): > 100 µM
- TGI (MDA-MB-435): > 100 µM
- TGI (SK-MEL-2 melanoma): > 100 µM
- TGI (UO-31 renal): 46.9 µM
- TGI (DU-145 prostate): 97.9 µM
- TGI (U251 CNS): > 100 µM
- TGI (NCI-H226 lung): 91.5 µM
- TGI (SR leukemia): > 100 µM
- TGI (HCC-2998 colon): > 100 µM
- TGI (M14 melanoma): > 100 µM
- TGI (SF-268 CNS): 36.2 µM
- TGI (HT29 colon): > 100 µM
- TGI (SN12C renal): 69.1 µM
- TGI (PC-3 prostate): 37 µM
- TGI (HOP-92 NSCLC): > 100 µM
- TGI (HCT-116 colon): > 100 µM
- TGI (SW-620 colon): > 100 µM
- TGI (HOP-62 NSCLC): 33.7 µM
- TGI (BT-549 breast): 43.3 µM
- TGI (CCRF-CEM leukemia): 78.4 µM
- TGI (NCI-H460 lung): > 100 µM
- TGI (UACC-62 melanoma): > 100 µM
- TGI (EKVX NSCLC): > 100 µM
- TGI (K-562 leukemia): > 100 µM
- TGI (MDA-N): > 100 µM
- TGI (SK-MEL-5 melanoma): > 100 µM
- TGI (OVCAR-5 ovarian): > 100 µM
- TGI (NCI-H23 lung): > 100 µM
- TGI (ACHN renal): 93.4 µM
- TGI (COLO 205 colon): > 100 µM
- TGI (TK-10 renal): > 100 µM
- TGI (SK-MEL-28 melanoma): 82.6 µM
- TGI (UACC-257 melanoma): > 100 µM
- TGI (NCI-H522 lung): > 100 µM
- TGI (MALME-3M melanoma): > 100 µM
- TGI (MDA-MB-231 breast): > 100 µM
- TGI (MOLT-4 leukemia): > 100 µM
- TGI (SNB-19 CNS): > 100 µM
- TGI (SF-539 CNS): 33.3 µM
- TGI (LOX IMVI melanoma): > 100 µM
- TGI (IGROV1 ovarian): > 100 µM
- TGI (RXF 393 renal): 41.8 µM
- TGI (SF-295 CNS): 57.9 µM
- TGI (A498 renal): 98.7 µM
- TGI (CAKI-1 renal): > 100 µM
